From patent US20050245452A1, “Pharmaceutical use of novispirins” (Novozymes A/S, priority 2004, published 2005)
Ends that are not written are not given here.

Tests used:
[1] = test system: P. acnes (erythromycin resistant); assay: MIC on Propionebacterium acnes, erythromycin resistant strain; format: cell-based; conditions: clinically resistant to clindamycin and erythromycin
Method: (§1) Minimal Inhibitory Concentration (MIC) of Novispirin G10 (SEQ ID NO: 16) was evaluated against P. acnes. Two strains were tested—one of which is clinically resistant to clindamycin and erythromycin.

[2] = test system: P. acnes (erythromycin sensitive); assay: MIC on Propionebacterium acnes, erythromycin sensitive strain; format: cell-based
Method: as §1

[3] = test system: Staphylococcus aureus (ATCC 25923); assay: Staphylococcus aureus wound infection in pigs (wound chambers, 4 hour time course); format: in vivo, Göttinger minipigs; conditions: 100 micrograms/ml, 1 ml applied
Method: The bacterial strain, Staphylococcus aureus, used in the study was ATCC 25923. The amino acid sequence of Novispirin G10 is shown in SEQ ID NO: 16.
Novispirin G10 was diluted in 0.01% acetic acid containing 0.1% BSA with a final concentration of 1 mg (substrate)/ml (solution); 100 micrograms/ml; 10 micrograms/ml and 1 microgram/ml. The carrier control was 0.01% acetic acid containing 0.1% BSA. As a positive control was used Synthetic Protegrin 1 (Charité, Institut f. Biochemie d. Humboldt Universität Berlin) diluted in 0.01% acetic acid containing 0.1% BSA with a final concentration of 100 micrograms/ml.
The chambers are made of one piece of titanium, have a screw top cover (also made of titanium) and were built in teamwork with Cranio Construct Bochum. The chambers have a height of 14 mm, an inner diameter of 25 mm and an outer diameter of 32 mm without baseplate (with baseplate: 50 mm).
After providing permission to conduct experiments with vertebrates in compliance with German animal protection laws, Göttinger minipigs (Fa. Ellegaard, Dalmose, Denmark; female, 6 months old, 25-30 kg weight) were chosen to implant the chambers on. The pigs were kept at least 2 weeks in the stable, fed a standard porcine diet and housed at 20° C. to 30° C. in an atmosphere of approximately 65% humidity with a light cycle of 12 hours on and 12 hours off. The animals used for this study appeared, during the experiments, clinically healthy—rectal temperature and body weight remained normal over the observed period.
Before wounding the skin was surgically prepared, washed with soap and disinfected with Octenisept (S&M, Norderstedt, Germany) for five minutes. Twelve BO-Chambers were implanted on the pigs back and flank between the base of the scapula and the iliac crest. The wounds were spaced a minimum of 5 cm apart and were created in four rows parallel to the columna vertebralis, two rows on each side of the columna vertebrtalis. The exact size and shape of the wounds were ensured by a special custom-made “round-scalpel” (also built in teamwork with Cranio Construct Bochum), which has a diameter of 33 mm. Epidermal, dermal subcutaneous tissues were removed, possible bleedings stanched by bipolar diathermy. The chambers were placed with an additionally secant v-incision at positions 6 respectively 12 o'clock on the musculus thoracicus longus fascia and the muscle fascia of the external ripcage muscles. The incisions were sutured with 2/0 Monocryl followed by the closure of the chambers. Povidone-iodine salve (Betaisodonna-salve, Mundipharma, Austria) was smothered on the wound edges. The chambers were dressed with paraffin gauze (Jelonet, Smith & Nephew, Lohfelden, Germany) and sterile compresses. Dressings were changed every second day under sedation (as described above).
Bacterial Background of each chamber was measured every second day, to detect potential contamination. Only one contaminated chamber was detected. Seven days post operation ten chambers were inoculated with bacteria.
For bacteria progeny Staphylococcus aureus (ATCC 25923) was plated on LB-Agar plate and incubated at 37° C. for 18 hours. One colony was picked and transfered into 3 ml LB-Medium for over night culture at 37° C. at 300 rpm. Over night culture was diluted in 50 ml fresh LB-Medium and incubated for 2.5 hours at 37° C. at 200 rpm.
Bacteria were pelleted, 4000 rpm, 5 min, Mergafuge 1.0 R (Heraeus, Hanau, Germany), and resuspended in PBS. Amount of containg bacteria was detremined by OD600 nm-measurement and calculated as follows: Colony forming Unit/ml=OD600 nm×2.5×10^8 (bacteria)
To inoculate one chamber 5×10^8 were used.
The establishment of the infection was proven by the measurement of bacterial counts per chamber. All inoculated chambers were infected after two days. Chamber No. 2 keeps bacteria free.
At day four after infection the antimicrobial effect of the testing substrate was measured in a time course of 4 hours in duration. […]

Compound	Minimal Inhibitory Concentration (MIC) [1]	Minimal Inhibitory Concentration (MIC) [2]	Mean CFU per ml sample volume (chamber fluid) ([3]; 0 hours) [CFU/ml]	Mean CFU per ml sample volume (chamber fluid) ([3]; 1 hour) [CFU/ml]	Mean CFU per ml sample volume (chamber fluid) ([3]; 2 hours) [CFU/ml]	Mean CFU per ml sample volume (chamber fluid) ([3]; 3 hours) [CFU/ml]	Mean CFU per ml sample volume (chamber fluid) ([3]; 4 hours) [CFU/ml]
CCC[C@@H]1C[C@@H](C(=O)N[C@@H]([C@H]2O[C@H](SC)[C@H](O)[C@@H](O)[C@H]2O)[C@H](C)Cl)N(C)C1 [Clindamycin]	64	0.12	–	–	–	–	–
Protegrin 1: Synthetic Protegrin 1 (Charité, Humboldt Universität Berlin), used as a positive control at 100 micrograms/ml (RGGRLCYCRRRFCVCVGR; ends and bridges not checked; cysteine pairing not given here; UniProt P32194 131-148, looked up) [reference compound]	–	–	13200000	88667	12800	3525	129000
CC[C@H]1OC(=O)[C@H](C)[C@@H](O[C@H]2C[C@@](C)(OC)[C@@H](O)[C@H](C)O2)[C@H](C)[C@@H](O[C@@H]2O[C@H](C)C[C@H](N(C)C)[C@H]2O)[C@](C)(O)C[C@@H](C)C(=O)[C@H](C)[C@@H](O)[C@]1(C)O [Erythromycin]	64	0.25	–	–	–	–	–
